This series is described as follows: Human HepG2 cell viability assay in 384 well format. The settings on record: HepG2 cells, read-out: Inhibition. Further details: dose 125 nL, time 70.5 hour; cytotoxicity at 70.5 h: concentration not given beside the values. Type of series: toxicity, cell-based.
In the case of `CC(C)c1n[nH]c(C2CN(C(=O)c3ccnc(C4CC4)n3)CCO2)n1` (stereo not drawn), the cytotoxicity at 70.5 h amounted to 16.3%.
The same measure for `CCc1nncn1CCNC(=O)N1CCN(Cc2ccccc2)CC1`: 3.82%; for `CCn1cnnc1CNC(=O)N1CCN(Cc2ccsc2)CC1`: 2.69%.
Under `CCn1cc(CN2CCCN(C(=O)c3ccc(C)nc3)CC2)cn1` stands -6.02%; under `Cc1ocnc1C(=O)N1CCCN(Cc2cscn2)CC1`, 21.9%.
As for `Cc1nc(CN(Cc2ccc3c(c2)OCCO3)C2CCCC2)no1`, the cytotoxicity at 70.5 h is -7.64%.
Take `Cc1nc(CN(C)C2CCN(Cc3ccc(C(N)=O)cc3)C2)no1` (stereo not drawn): the cytotoxicity at 70.5 h is -11.2%.
Take `Cc1nn(C)c(N2CCOCC2)c1CNCc1ccccc1CO`: the cytotoxicity at 70.5 h is -10.1%.
Under `CCn1cc(CN2CCCN(C(=O)c3cc(C)no3)CC2)cn1` stands -2.69%; under `CC(C)c1nnc(CNC2CCCN(Cc3noc(C4CC4)n3)C2)o1` (stereo not drawn), -5.67%; under `CCn1cc(CN2CCCN(C(=O)c3ccco3)CC2)cn1`, -6.43%.
Regarding `Cc1ccoc1C(=O)N1CCCN(Cc2cnn(C)c2)CC1`, the cytotoxicity at 70.5 h was -17.4%.
For the molecule `COc1cc2ccccc2cc1C(=O)N1CCCC(c2nncn2C)C1` (stereo not drawn), the cytotoxicity at 70.5 h is -11.4%.
On to `CCc1nc(CN2CCCC(NCc3nc(C)c(C)o3)C2)no1` (stereo not drawn), for which the cytotoxicity at 70.5 h is -10.5%.
As for `CCOc1ncccc1C(=O)N1CCCC(c2nncn2C)C1` (stereo not drawn), the cytotoxicity at 70.5 h is -3.42%.
Under `Cc1nn(C)c(C)c1C1CCCN1C(=O)c1ccnc(N(C)C)c1` (stereo not drawn) stands -14.3%; under `COc1c(C2CCCN2C(=O)c2cnccn2)c(C)nn1C` (stereo not drawn), 20.2%; under `CCc1nnc(CNC2CCCN(Cc3noc(C4CC4)n3)C2)o1` (stereo not drawn), -9.18%.
The same measure for `Cc1nc(CN(C)C2CCN(Cc3ccc4c(c3)CCC4)C2)no1` (stereo not drawn): -9.34%; for `Cn1cnnc1C1CCCN(C(=O)COc2ccccc2Cl)C1` (stereo not drawn): -6.87%; for `Cn1cnnc1C1CCCN(C(=O)c2cc(Cl)cc(Cl)c2)C1` (stereo not drawn): -8.15%.
The same measure for `CN(C)c1cc(CNC(=O)c2n[nH]c(=O)c3ccccc23)ccn1`: 12.8%; for `Cn1cnnc1C1CCCN(C(=O)c2cc3ccccc3[nH]2)C1` (stereo not drawn): -11.2%.
For the molecule `Cc1nn(C)c(N2CCOCC2)c1CNCc1ccc(N(C)C)nc1`, the cytotoxicity at 70.5 h was 15.7%.
On to `Cc1nn(C)c(N2CCOCC2)c1CNCc1ccnn1C`, for which the cytotoxicity at 70.5 h was -9.28%.
The same measure for `COc1ncccc1CNCc1c(C)nn(C)c1N1CCOCC1`: -12.3%; for `CN(C)c1cc(CNC(=O)c2cc(Cl)ccn2)ccn1`: -11.8%; for `CCn1cc(CN2CCCN(C(=O)c3ccoc3C)CC2)cn1`: -7.59%.
On to `CCn1cc(CN2CCCN(C(=O)c3c(C)oc(C)c3C)CC2)cn1`, for which the cytotoxicity at 70.5 h was -12.8%.
The same measure for `CNc1cc2c(nn1)CCN(C(=O)c1cc(C)no1)C2`: -7.41%; for `CNc1cc2c(nn1)CCN(C(=O)c1ccc3c(c1)CCC3)C2`: -4.27%; for `COc1c(C2CCCN2C(=O)c2ccc(C#N)cc2)c(C)nn1C` (stereo not drawn): -9.49%.
The same measure for `O=C(CCc1nccs1)N1CCN(c2nccs2)CC1`: -7.6%; for `CCC1CN(CC(=O)Nc2cc(C)nn2C)CCO1` (stereo not drawn): -5.03%; for `Cn1cnnc1C1CCN(C(=O)Cc2ccc3c(c2)OCCO3)CC1`: -2.32%.
The same measure for `Cc1cnn(CC2CCCN2C(=O)c2cccc3c2OCO3)c1` (stereo not drawn): -5.23%; for `Cc1cccc2c1CCN(c1cc(N3CCCC3CO)ncn1)C2` (stereo not drawn): -10.5%; for `CC(NC(=O)NCCOc1ccc(Cl)cc1)c1nncn1C` (stereo not drawn): -12.4%.
As to `COc1ccc(CC(=O)N2CCCC(c3nncn3C)C2)cc1` (stereo not drawn), the cytotoxicity at 70.5 h is -2.88%.
On to `COc1ccc(C(=O)N(C)Cc2ncc(C)c(OC)c2C)c(OC)c1`, for which the cytotoxicity at 70.5 h is -4.31%.
The same measure for `COCCOc1ccccc1C(=O)N(C)Cc1ncc(C)c(OC)c1C`: -5.65%; for `Cc1cc(C)c(C)c(OCCCNC(=O)NC(C)c2nncn2C)c1` (stereo not drawn): 14.5%.
On to `Fc1cccc(CN2CCN(Cc3cscn3)CC2)c1`, for which the cytotoxicity at 70.5 h was -4.73%.
As to `COc1cccc(C(=O)N(C)Cc2ncc(C)c(OC)c2C)c1OC`, the cytotoxicity at 70.5 h was -0.629%.
The same measure for `COCc1ccccc1C(=O)N(C)Cc1ncc(C)c(OC)c1C`: 19.4%; for `NC(=O)C1CCCN1c1cc(N2CCc3ccccc3C2)ncn1` (stereo not drawn): -5.82%.
Under `c1cnnc(N2CCCC(NCc3ccc(-n4cncn4)cc3)C2)c1` (stereo not drawn) stands -3.17%; under `Cc1noc2ncc(C(=O)N3CCCC(n4ccnc4C)C3)cc12` (stereo not drawn), -7.39%.
For `O=C(c1ccccc1OCC1CC1)N1CCCC1Cn1cccn1` (stereo not drawn), the cytotoxicity at 70.5 h was 17.7%.
The same measure for `O=C1COc2c(cccc2C(=O)N2CCCC2Cn2cccn2)N1` (stereo not drawn): -8.08%; for `CN1CCN(c2cc(N3CCCC3CO)ncn2)Cc2ccccc21` (stereo not drawn): 17.8%.
On to `COc1ccc2c(c1)CN(c1cc(N3CCCC3CO)ncn1)CC2` (stereo not drawn), for which the cytotoxicity at 70.5 h was -7.51%.
Consider `CC(C)c1n[nH]c(C2CN(Cc3nnc(C4CC4)n3C)CCO2)n1` (stereo not drawn), for which the cytotoxicity at 70.5 h was -7.72%.
As to `Cc1nc(CN2CCCC(N(C)Cc3nnc(C4CC4)o3)C2)no1` (stereo not drawn), the cytotoxicity at 70.5 h is 13.8%.
The same measure for `CC(C)c1nnc2n1CCN(C(=O)c1cccc(OCC(N)=O)c1)C2`: -2.06%; for `CC(C)c1nc(CN2CCCC2CN2CCCC2)cs1` (stereo not drawn): -7.95%; for `CCN1CCN(Cc2csc(C(C)C)n2)CC1`: -8.86%.
Under `Cc1nc(C)n(CC2CCCCN2Cc2cscn2)n1` (stereo not drawn) stands -5.99%; under `Cc1nc(C)n(CC2CCCN2Cc2ccccn2)n1` (stereo not drawn), -6.2%.
For the molecule `CCC(O)CN1CCN(C(=O)Cc2nc(-c3ccco3)oc2C)CC1` (stereo not drawn), the cytotoxicity at 70.5 h was -2.09%.
The same measure for `Cc1nc(C)n(CC2CCCN2Cc2cnc(C)s2)n1` (stereo not drawn): -8.97%; for `Cc1nc(CN2CCCC2Cn2cncn2)nc2ccccc12` (stereo not drawn): -12.1%; for `CC(C)c1nc(CN2CCOCC2)cs1`: 7.98%.
Consider `CN(Cc1ccccc1)C(=O)CS(=O)(=O)Cc1ccc(Cl)c(Cl)c1`, for which the cytotoxicity at 70.5 h is -4.65%.
For `CCOc1ccc(CC(CNC(=O)c2sccc2C)C(N)=O)cc1` (stereo not drawn), the cytotoxicity at 70.5 h was -1.61%.
The same measure for `CCOc1ccc(CC(CNC(=O)c2ccc(C)o2)C(N)=O)cc1` (stereo not drawn): -10.7%; for `O=C(c1ccc2[nH]nnc2c1)N1CCCC(n2cccn2)C1` (stereo not drawn): -5.26%; for `Cc1nnc2n1CCN(CC(=O)Nc1cc(C(C)C)no1)C2`: -8.51%.
The same measure for `COc1ccccc1CC1CCCN(CCC(N)=O)C1` (stereo not drawn): 5.7%; for `CCc1nnc2n1CCN(CCC(=O)Nc1cc(C)on1)C2`: -5.92%.
Regarding `CC(C)c1nccn1C1CCCN(C(=O)c2ccsc2)C1` (stereo not drawn), the cytotoxicity at 70.5 h is -2.65%.
Under `O=C(c1cccc2c1OCO2)N1CCCC1Cn1cccn1` (stereo not drawn) stands -8.17%; under `CC(C)c1nnc2n1CCN(CC(=O)Nc1nncs1)C2`, -6.91%.
The same measure for `CC(C)c1nnc2n1CCN(C(=O)c1ccc(-n3cnnc3)cc1)C2`: 27.3%; for `O=C(c1cccnc1N1CCOCC1)N1CCCC1Cn1cccn1` (stereo not drawn): -8.41%; for `Cc1n[nH]c(C)c1NC(=O)CN1CCOC(Cn2cccn2)C1` (stereo not drawn): 0.504%.
Under `Cc1nc(CN2CCCC(N(C)Cc3cscn3)C2)no1` (stereo not drawn) stands 4.42%.
Consider `COCCc1noc(CNC2CCc3nc(C(C)C)nn3C2)n1` (stereo not drawn), for which the cytotoxicity at 70.5 h is -5%.
Consider `Cc1nc(C)n(C2CCCN(C(=O)c3ccc(N(C)C)nn3)C2)n1` (stereo not drawn), for which the cytotoxicity at 70.5 h is -3.22%.
`CC(C)c1nc(CN2CCN(CC3CCCO3)CC2)cs1` (stereo not drawn): the cytotoxicity at 70.5 h is -2.13%.
`CCn1cnnc1C1CCN(C(=O)C(OC)c2ccccc2)CC1` (stereo not drawn): the cytotoxicity at 70.5 h is -0.299%.
With `Cn1cnnc1C1CCCN(C(=O)NCCOc2ccccc2)C1` (stereo not drawn), the cytotoxicity at 70.5 h was determined as 40.2%.
Under `CC(=O)Nc1nc(C(=O)NC(C)c2ccc(F)cc2)cs1` (stereo not drawn) stands -13.6%; under `CC(OCC(F)(F)F)C(=O)NCc1ccc(-n2cncn2)nc1` (stereo not drawn), -12.1%; under `CNS(=O)(=O)c1ccc(CNC(=O)NCC2CCCO2)cc1` (stereo not drawn), -20.2%.
`CCN(Cc1ccc2c(c1)OCCO2)C(=O)NCc1nc(C)cs1`: the cytotoxicity at 70.5 h is -27.9%.
As for `Cc1nnc(N2CCC(CNC(=O)OC(C)(C)C)CC2)c(C#N)c1C`, the cytotoxicity at 70.5 h worked out at 1.28%.
Under `Cc1nc(CN2CCCN(C(=O)c3ccccn3)CC2)oc1C` stands -10.4%.
The same measure for `Cc1cccc2nc(C(=O)N3CCC(Nc4cccnn4)CC3)cn12`: -21.3%; for `CC(NC(=O)NCc1cccc(N2CCCC2=O)c1)c1ccccc1` (stereo not drawn): -12.2%.
In the case of `O=C(c1cccc2cccnc12)N1CCCN(c2cccnn2)CC1`, the cytotoxicity at 70.5 h is -10.5%.
For the molecule `O=C(c1ccccc1-n1cccn1)N1CCCN(c2cccnn2)CC1`, the cytotoxicity at 70.5 h is -21.8%.
The same measure for `O=C(Nc1cc(F)ccc1OCC1CCCO1)c1ccccn1` (stereo not drawn): -8.61%; for `Cc1cc(CN2CCOC(CN(C)c3cccnn3)C2)no1` (stereo not drawn): -11.5%.
Under `O=C1CCCCN1c1cccc(CNC2CCCC2)c1` stands -17.9%; under `O=C(c1cccn2ccnc12)N1CCCN(c2cccnn2)CC1`, -20.2%; under `Cc1nc(CN2CCOC(CN(C)c3cccnn3)C2)cs1` (stereo not drawn), -12.9%.
In the case of `CCn1cnnc1C1CCN(C(=O)COCCc2ccccc2)CC1`, the cytotoxicity at 70.5 h was -3.71%.
For `Cc1ccc(-c2nc(CN3CCn4c(nnc4C4CC4)C3)cs2)o1`, the cytotoxicity at 70.5 h stood at 14.8%.
The same measure for `Cc1cc(C(=O)NCCn2nc3ccccn3c2=O)[nH]n1`: -13.9%.
For the molecule `CC1CN(CC(=O)NC2CCCC2)CCN1c1ccc2nncn2n1` (stereo not drawn), the cytotoxicity at 70.5 h is -20.8%.
`CCc1nc(CN2CCCN(C(=O)COCC3CC3)CC2)cs1`: the cytotoxicity at 70.5 h is -12.1%.
The same measure for `Cc1ccsc1CNC1CCCc2c1cnn2C` (stereo not drawn): -2.66%.

For the origin of these results see ChEMBL document CHEMBL3507680, “University of Dundee, Gates Library screen for HepG2 cell viability”.
